#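 Assay format: 96-well plates, 48-hour exposure. GI50 marks 50% less growth.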 The source made the active and inactive calls. Rule as the data show it: active = GI50 up to about 1.1 µM and inactive = higher.
# What was measured:
# Experiment in all cases: inhibition of tumour cell growth, NCI panel, 48 h
# 786-0 = system: 786-0
# A498 = system: A498
# A549 = system: A549
# ACHN = system: ACHN
# CAKI-1 = system: CAKI-1
# CCRF-CEM = system: CCRF-CEM
# COLO 205 = system: COLO 205
# DLD-1 = system: DLD-1
# DMS-114 = system: DMS-114
# DMS-273 = system: DMS-273
# EKVX = system: EKVX
# HCC 2998 = system: HCC 2998
# HCT-116 = system: HCT-116
# HCT-15 = system: HCT-15
# HL-60 = system: HL-60
# HOP-62 = system: HOP-62
# HOP-92 = system: HOP-92
# HT-29 = system: HT-29
# IGROV-1 = system: IGROV-1
# K562 = system: K562
# KM-20L2 = system: KM-20L2
# KM12 = system: KM12
# LOX IMVI = system: LOX IMVI
# LXFL 529 = system: LXFL 529
# M14 = system: M14
# M19-MEL = system: M19-MEL
# MOLT-4 = system: MOLT-4
# Malme-3M = system: Malme-3M
# NCI-H226 = system: NCI-H226
# NCI-H23 = system: NCI-H23
# NCI-H460 = system: NCI-H460
# NCI-H522 = system: NCI-H522
# OVCAR-3 = system: OVCAR-3
# OVCAR-4 = system: OVCAR-4
# OVCAR-5 = system: OVCAR-5
# OVCAR-8 = system: OVCAR-8
# RPMI-8226 = system: RPMI-8226
# RXF 393 = system: RXF 393
# SF-295 = system: SF-295
# SF-539 = system: SF-539
# SK-MEL-28 = system: SK-MEL-28
# SK-MEL-2 = system: SK-MEL-2
# SK-MEL-5 = system: SK-MEL-5
# SK-OV-3 = system: SK-OV-3
# SN12C = system: SN12C
# SNB-19 = system: SNB-19
# SNB-75 = system: SNB-75
# SNB-78 = system: SNB-78
# SR = system: SR
# SW-620 = system: SW-620
# TK-10 = system: TK-10
# U-251 = system: U-251
# UACC-257 = system: UACC-257
# UACC-62 = system: UACC-62
# UO-31 = system: UO-31
# SF-268 = system: SF-268
smiles,measurement,setting,value
Cc1ccc2c(C3Cc4ccccc4N3C(=O)/C=C\C(=O)O)c(C)[nH]c2c1 (stereo not drawn),GI50,786-0,47.9 µM (inactive)
same,GI50,A498,65.8 µM (inactive)
same,GI50,A549,> 100 µM (inactive)
same,GI50,ACHN,> 100 µM (inactive)
same,GI50,CAKI-1,46.5 µM (inactive)
same,GI50,CCRF-CEM,23.5 µM (inactive)
same,GI50,COLO 205,22.3 µM (inactive)
same,GI50,DLD-1,60.3 µM (inactive)
same,GI50,DMS-114,31.4 µM (inactive)
same,GI50,DMS-273,41.7 µM (inactive)
same,GI50,EKVX,78.7 µM (inactive)
same,GI50,HCC 2998,73.8 µM (inactive)
same,GI50,HCT-116,53 µM (inactive)
same,GI50,HCT-15,26.9 µM
same,GI50,HL-60,19.6 µM (inactive)
same,GI50,HOP-62,30.1 µM (inactive)
same,GI50,HOP-92,30.8 µM (inactive)
same,GI50,HT-29,73.5 µM (inactive)
same,GI50,IGROV-1,41 µM (inactive)
same,GI50,K562,22.2 µM (inactive)
same,GI50,KM-20L2,> 100 µM (inactive)
same,GI50,KM12,35.2 µM (inactive)
same,GI50,LOX IMVI,30.6 µM (inactive)
same,GI50,LXFL 529,18.7 µM (inactive)
same,GI50,M14,44.4 µM (inactive)
same,GI50,M19-MEL,67.5 µM (inactive)
same,GI50,MOLT-4,29.5 µM (inactive)
same,GI50,Malme-3M,33.5 µM (inactive)
same,GI50,NCI-H226,> 100 µM (inactive)
same,GI50,NCI-H23,67.9 µM (inactive)
same,GI50,NCI-H460,> 100 µM (inactive)
same,GI50,NCI-H522,24.7 µM (inactive)
same,GI50,OVCAR-3,19.6 µM (inactive)
same,GI50,OVCAR-4,> 100 µM (inactive)
same,GI50,OVCAR-5,> 100 µM (inactive)
same,GI50,OVCAR-8,30.6 µM (inactive)
same,GI50,RPMI-8226,24.4 µM (inactive)
same,GI50,RXF 393,29.9 µM (inactive)
same,GI50,SF-295,28.8 µM (inactive)
same,GI50,SF-539,47.2 µM (inactive)
same,GI50,SK-MEL-28,59 µM (inactive)
same,GI50,SK-MEL-2,17.5 µM (inactive)
same,GI50,SK-MEL-5,41.4 µM (inactive)
same,GI50,SK-OV-3,> 100 µM (inactive)
same,GI50,SN12C,49.8 µM (inactive)
same,GI50,SNB-19,40.7 µM (inactive)
same,GI50,SNB-75,35.4 µM (inactive)
same,GI50,SNB-78,17.5 µM (inactive)
same,GI50,SR,25.1 µM (inactive)
same,GI50,SW-620,33.1 µM (inactive)
same,GI50,TK-10,56.1 µM (inactive)
same,GI50,U-251,44.6 µM (inactive)
same,GI50,UACC-257,41.3 µM (inactive)
same,GI50,UACC-62,29.2 µM (inactive)
same,GI50,UO-31,44.3 µM (inactive)
CCCC(=O)OC[n+]1ccc2c(C)c3[nH]c4ccc(OC)cc4c3c(C)c2c1,GI50,786-0,0.0953 µM (active)
same,GI50,A498,1.02 µM (active)
same,GI50,A549,0.306 µM (active)
same,GI50,ACHN,0.215 µM (active)
same,GI50,CAKI-1,0.908 µM (active)
same,GI50,COLO 205,0.427 µM (active)
same,GI50,DLD-1,0.196 µM (active)
same,GI50,DMS-114,0.47 µM (active)
same,GI50,DMS-273,0.0586 µM (active)
same,GI50,EKVX,1.01 µM (active)
same,GI50,HCC 2998,0.482 µM (active)
same,GI50,HCT-116,0.0552 µM (active)
same,GI50,HCT-15,0.288 µM
same,GI50,HL-60,0.259 µM (active)
same,GI50,HOP-62,0.714 µM (active)
same,GI50,HOP-92,1.16 µM (inactive)
same,GI50,HT-29,0.0931 µM (active)
same,GI50,IGROV-1,0.625 µM (active)
same,GI50,KM-20L2,0.226 µM (active)
same,GI50,KM12,0.337 µM (active)
same,GI50,LOX IMVI,0.23 µM (active)
same,GI50,LXFL 529,0.498 µM (active)
same,GI50,M14,0.708 µM (active)
same,GI50,M19-MEL,0.555 µM (active)
same,GI50,MOLT-4,0.0289 µM (active)
same,GI50,Malme-3M,1.45 µM (inactive)
same,GI50,NCI-H226,0.444 µM (active)
same,GI50,NCI-H23,0.347 µM (active)
same,GI50,NCI-H460,0.0481 µM (active)
same,GI50,NCI-H522,1.09 µM (active)
same,GI50,OVCAR-3,0.873 µM (active)
same,GI50,OVCAR-4,1.03 µM (active)
same,GI50,OVCAR-5,0.675 µM (active)
same,GI50,OVCAR-8,0.092 µM (active)
same,GI50,RPMI-8226,0.0296 µM (active)
same,GI50,RXF 393,1.09 µM (active)
same,GI50,SF-268,0.313 µM (active)
same,GI50,SF-295,0.581 µM (active)
same,GI50,SF-539,0.305 µM (active)
same,GI50,SK-MEL-28,0.74 µM (active)
same,GI50,SK-MEL-2,1.16 µM (inactive)
same,GI50,SK-MEL-5,1.19 µM (inactive)
same,GI50,SK-OV-3,1.51 µM (inactive)
same,GI50,SN12C,0.222 µM (active)
same,GI50,SNB-75,1.16 µM (inactive)
same,GI50,SNB-78,0.594 µM (active)
same,GI50,SR,0.0486 µM (active)
same,GI50,SW-620,0.0692 µM (active)
same,GI50,TK-10,2.9 µM (inactive)
same,GI50,U-251,0.391 µM (active)
same,GI50,UACC-257,2.08 µM (inactive)
same,GI50,UACC-62,1.06 µM (active)
same,GI50,UO-31,1.74 µM (inactive)
